# Test results: publication PMC9501035, “Synthesis of Novel N-Methylmorpholine-Substituted Benzimidazolium Salts as Potential α-Glucosidase Inhibitors” (Molecules, 2022)
# Values joined by “and” are separate entries in the source; they are usually repeats but may differ in a detail not shown here. Equal values may be shown once. Read-outs that look alike come from different tables or passages of the source.
# How the values were obtained:
# α-glucosidase [1] = assay: In vitro α-glucosidase inhibition (spectroscopic method); format: biochemical; conditions: means of experiments, n = 3
# Experimental: α-Glucosidase inhibitions were determined following a modified spectroscopic method. The detailed protocol was already reported. Each experiment was carried out thrice, and percentage inhibitions were determined with the help of the following expression, followed by the determination of IC50 values:% Inhibition = [(Acontrol − Asample)/Acontrol] × 100 where ‘A’ stands for absorbance.
# α-glucosidase [2] = conditions: cited from earlier work
# [3] = structural hybrids with piperazine and morpholine
smiles,measurement,setting,value
"O=C(C[n+]1c(CN2CCOCC2)n(Cc2ccccc2)c2ccccc21)Nc1ccccc1Cl [Compound 5a, 1-Benzyl-3-(2-((2-chlorophenyl)amino)-2-oxoethyl)-2-(morpholinomethyl)-1H-benzo[d]imidazol-3-ium chloride]",IC50,α-glucosidase [1],50 ± 0.04 µM
"O=C(C[n+]1c(CN2CCOCC2)n(Cc2ccccc2)c2ccccc21)Nc1ccc(Cl)cc1 [Compound 5b, 1-Benzyl-3-(2-((4-chlorophenyl)amino)-2-oxoethyl)-2-(morpholinomethyl)-1H-benzo[d]imidazol-3-ium chloride]",IC50,α-glucosidase [1],35 ± 0.02 µM
"O=C(C[n+]1c(CN2CCOCC2)n(Cc2ccccc2)c2ccccc21)Nc1ccccc1Br [Compound 5c, 1-Benzyl-3-(2-((2-bromophenyl)amino)-2-oxoethyl)-2-(morpholinomethyl)-1H-benzo[d]imidazol-3-ium chloride]",IC50,α-glucosidase [1],55 ± 0.14 µM
"O=C(C[n+]1c(CN2CCOCC2)n(Cc2ccccc2)c2ccccc21)Nc1ccc(Br)cc1 [Compound 5d, 1-Benzyl-3-(2-((4-bromophenyl)amino)-2-oxoethyl)-2-(morpholinomethyl)-1H-benzo[d]imidazol-3-ium chloride]",IC50,α-glucosidase [1],15 ± 0.03 µM
"O=C(C[n+]1c(CN2CCOCC2)n(Cc2ccccc2)c2ccccc21)Nc1ccccc1[N+](=O)[O-] [Compound 5e, 1-Benzyl-3-(2-((2-nitrophenyl)amino)-2-oxoethyl)-2-(morpholinomethyl)-1H-benzo[d]imidazol-3-ium chloride]",IC50,α-glucosidase [1],30 ± 0.11 µM
"O=C(C[n+]1c(CN2CCOCC2)n(Cc2ccccc2)c2ccccc21)Nc1cccc([N+](=O)[O-])c1 [Compound 5f, 1-Benzyl-3-(2-((3-nitrophenyl)amino)-2-oxoethyl)-2-(morpholinomethyl)-1H-benzo[d]imidazol-3-ium chloride]",IC50,α-glucosidase [1],19 ± 0.06 µM
"O=C(C[n+]1c(CN2CCOCC2)n(Cc2ccccc2)c2ccccc21)Nc1ccc([N+](=O)[O-])cc1 [Compound 5g, 1-Benzyl-3-(2-((4-nitrophenyl)amino)-2-oxoethyl)-2-(morpholinomethyl)-1H-benzo[d]imidazol-3-ium chloride]",IC50,α-glucosidase [1],25 ± 0.106 µM
"Cc1ccccc1NC(=O)C[n+]1c(CN2CCOCC2)n(Cc2ccccc2)c2ccccc21 [Compound 5h, 1-Benzyl-3-(2-((2-methylphenyl)amino)-2-oxoethyl)-2-(morpholinomethyl)-1H-benzo[d]imidazol-3-ium chloride]",IC50,α-glucosidase [1],21 ± 0.076 µM
"Cc1cccc(NC(=O)C[n+]2c(CN3CCOCC3)n(Cc3ccccc3)c3ccccc32)c1 [Compound 5i, 1-Benzyl-3-(2-((3-methylphenyl)amino)-2-oxoethyl)-2-(morpholinomethyl)-1H-benzo[d]imidazol-3-ium chloride]",IC50,α-glucosidase [1],47 ± 0.05 µM
"Cc1ccc(NC(=O)C[n+]2c(CN3CCOCC3)n(Cc3ccccc3)c3ccccc32)cc1 [Compound 5j, 1-Benzyl-3-(2-((4-methylphenyl)amino)-2-oxoethyl)-2-(morpholinomethyl)-1H-benzo[d]imidazol-3-ium chloride]",IC50,α-glucosidase [1],88 ± 0.08 µM
"COc1ccccc1NC(=O)C[n+]1c(CN2CCOCC2)n(Cc2ccccc2)c2ccccc21 [Compound 5k, 1-Benzyl-3-(2-((2-methoxyphenyl)amino)-2-oxoethyl)-2-(morpholinomethyl)-1H-benzo[d]imidazol-3-ium chloride]",IC50,α-glucosidase [1],26 µM and 25 µM
"COc1ccc(NC(=O)C[n+]2c(CN3CCOCC3)n(Cc3ccccc3)c3ccccc32)cc1 [Compound 5l, 1-Benzyl-3-(2-((4-methoxyphenyl)amino)-2-oxoethyl)-2-(morpholinomethyl)-1H-benzo[d]imidazol-3-ium chloride]",IC50,α-glucosidase [1],65 ± 0.015 µM
"O=C(C[n+]1c(CN2CCOCC2)n(Cc2ccccc2)c2ccccc21)Nc1ccccc1 [Compound 5m, 1-Benzyl-2-(morpholinomethyl)-3-(2-oxo-2-(phenylamino)ethyl)-1H-benzo[d]imidazol-3-ium chloride]",IC50,α-glucosidase [1],110 ± 0.113 µM
O=C(c1ccccc1)c1ccc2nc(-c3ccc(O)cc3)[nH]c2c1 [II],IC50,α-glucosidase [2]; benzoylarylbenzimidazoles,11.02 ± 0.04 µM
CN1CCN(c2ccc3[nH]c(-c4ccc(O)cc4)nc3c2)CC1 [IV X=NMe],IC50,α-glucosidase [2]; [3],2.25 ± 0.28 µM
Oc1ccc(-c2nc3cc(N4CCOCC4)ccc3[nH]2)cc1 [IV X=O],IC50,α-glucosidase [2]; [3],3.4 ± 0.86 µM
COc1ccc(/C(CSc2nc3ccccc3[nH]2)=N\N=C\c2ccc(OC)cc2O)cc1 [I],IC50,α-glucosidase [2]; benzimidazole-bearing Schiff bases,2.2 ± 0.1 µM
